In patent US9248111B2, “Therapeutic approaches for treating parkinson's disease” (PHARNEXT, priority 2011, dated 2016):
“Also recorded” adds a separate entry of the source.

Columns and labels:
[1] = tested on: dopaminergic neuronal terminals in the left striatum; test: [3H]-mazindol labelling of dopaminergic terminals in striatum after 6-OHDA lesion; format: in vivo, rat; conditions: FIG. 16B: BCL-ACP 3.75 and 0.25 mg/kg bid; L-DOPA 8 mg/kg with benserazide 12.5 mg/kg; vs non-treated 6-OHDA rats
Description: (§1) Wistar rats (5 weeks) were used after an acclimatization period of at least 5 days. Surgery was performed under ketamine (50 mg/kg) and xylazine (10 mg/kg). Animals received an unilateral injection of 12 μg of 6-OHDA (sigma Aldrich) dissolved in 6 μl of 0.9% sterile NaCl containing 0.1% ascorbic acid (to protect 6-OHDA from oxidation), at the flow rate of 1 μl/min, in the left substantia nigra pars compacta. The stereotaxic coordinates of the injection site will be: anteroposterior+2.2 mm, lateral 2.0 mm, dorsoventral+3 mm with the incisor bar at +5.0 mm above the interaural plane, according to the rat stereotaxic atlas by De Groot (1959).
(§2) The first administration of treatment or vehicle has been performed the day before the stereotaxic injection of 6-OHDA (for the lesion groups) or vehicle and all along the 15 days preceding the behavioral tests. […] During the study and for each animal, the volume of per os administrations was determined on the basis of the mean body weight of the animals of the corresponding group. Body weights will be determined twice a week and the volume of administration will thus be adjusted consequently. […]
The loss of DA terminals in the striatum was assessed as an index of the extent of the dopaminergic denervation by analysis of [^3H]-mazindol binding to dopamine uptake sites. […]

[2] = tested on: dopaminergic neuron cell bodies of subtantia nigra pars compacta; test: Quantification of TH positive neurons in substantia nigra after 6-OHDA lesion; format: in vivo, rat; conditions: FIG. 16A: BCL-ACP 3.75 and 0.25 mg/kg bid; L-DOPA 8 mg/kg with benserazide 12.5 mg/kg; vs non-treated 6-OHDA rats
Description: as §1, §2
TH positive neurons were counted in a set of the three sections centered on the track of the 6-OHDA injection needle in the SN, covering almost all the SN. […] Cell counted is done using a microscope connected to a computer image analysis system by a CDD camera.

Structure (SMILES): N[C@@H](Cc1ccc(O)c(O)c1)C(=O)O [L-DOPA, levodopa]
- density of dopaminergic neuronal terminals in the left striatum (OD of [3H]-mazindol labelling) [1]: failed to inhibit; also recorded: not observed
- number of dopaminergic neurons in the left (intoxicated) part of SN [2]: failed to inhibit; also recorded: not observed
